Earlier results, collected in patent publication US7750010B2, “Tricyclic anilide spirohydantion CGRP receptor antagonists” (Merck Sharp & Dohme Corp., priority 2004, dated 2010).
No end group written: not given here.

Tests used:
[1] = tested on: facial blood flow; conditions: rat, trigeminal ganglion stimulation
[2] = tested on: middle meningeal artery; conditions: rats, electrical stimulation of the dura mater, prior administration
[3] = tested on: facial blood flow; conditions: marmoset, electrical stimulation of the trigeminal ganglion

CGRP(8-37): a fragment of CGRP that lacks seven N-terminal amino acid residues; a peptide CGRP antagonist (VTHRLAGLLSRSGGVVKNNFVPTNVGSKAF; ends and bridges not checked; UniProt P06881 90-119, looked up, fragment)
effect on increased facial blood flow [1]: inhibited
effect on increase in diameter of the middle meningeal artery [2]: blocked

NCCCC[C@H](NC(=O)[C@@H](Cc1cc(Br)c(O)c(Br)c1)NC(=O)N1CCC(N2Cc3ccccc3NC2=O)CC1)C(=O)N1CCN(c2ccncc2)CC1 [BIBN4096BS]
effect on increase in facial blood flow [3]: could be blocked
